Laboratory results as given in ChEMBL document CHEMBL3779770, “Synthesis, biological evaluation and molecular docking study of some novel indole and pyridine based 1,3,4-oxadiazole derivatives as potential antitubercular agents” (Bioorg Med Chem Lett, 2016).
Converted amounts (≈) assume the structure as drawn.

Key:
[1] = Selectivity index, ratio of GI50 for human A549 cells to MIC for dormant state Mycobacterium bovis BCG ATCC 35734; assay type: toxicity, cell-based; conditions: read-out: Selectivity Index
[2] = Selectivity index, ratio of GI50 for human PANC1 cells to MIC for active state Mycobacterium bovis BCG ATCC 35734; assay type: toxicity, cell-based, PANC-1; conditions: read-out: Selectivity Index
[3] = Selectivity index, ratio of GI50 for human PANC1 cells to MIC for dormant state Mycobacterium bovis BCG ATCC 35734; assay type: toxicity, cell-based, PANC-1; conditions: read-out: Selectivity Index
[4] = tested on: Escherichia coli; assay: Antibacterial activity against Escherichia coli NCIM 2688 after 8 hrs; assay type: functional, organism-based; conditions: NCIM 2688, 8 h
[5] = tested on: Pseudomonas fluorescens; assay: Antibacterial activity against Pseudomonas fluorescens NCIM 2036 after 8 hrs; assay type: functional, organism-based; conditions: NCIM 2036, 8 h
[6] = tested on: Staphylococcus aureus; assay: Antibacterial activity against Staphylococcus aureus NCIM 2010 after 12 hrs; assay type: functional, organism-based; conditions: NCIM 2010, 12 h
[7] = tested on: Bacillus subtilis; assay: Antibacterial activity against Bacillus subtilis NCIM 2079 after 12 hrs; assay type: functional, organism-based; conditions: NCIM 2079, 12 h
[8] = tested on: Mycobacterium tuberculosis; assay: Antitubercular activity against active state Mycobacterium tuberculosis H37Ra assessed as viable cells after 8 days by XTT reduction menadione assay; assay type: functional, organism-based; conditions: 192 h
[9] = tested on: Mycobacterium tuberculosis; assay: Antitubercular activity against dormant state Mycobacterium tuberculosis H37Ra assessed as viable cells after 12 days by XTT reduction menadione assay; assay type: functional, organism-based; conditions: 288 h
[10] = (§1) Cytotoxicity against human HeLa cells after 72 hrs by MTT assay; assay type: cell-based; conditions: HeLa cells
[11] = tested on: HeLa; assay: as §1; assay type: cell-based; conditions: hela, 72 h
[12] = (§2) Cytotoxicity against human A549 cells after 48 hrs by MTT assay; assay type: cell-based; conditions: A549 cells
[13] = tested on: A549; assay: as §2; assay type: cell-based; conditions: a549, 48 h
[14] = Cytotoxicity against human PANC1 cells after 48 hrs by MTT assay; assay type: cell-based, PANC-1; conditions: for GI50 at 48 h: PANC1 cells; for GI90: panc-1, 48 h
[15] = Selectivity index, ratio of GI50 for human HeLa cells to MIC for active state Mycobacterium bovis BCG ATCC 35734; assay type: toxicity, cell-based; conditions: read-out: Selectivity Index
[16] = Selectivity index, ratio of GI50 for human HeLa cells to MIC for dormant state Mycobacterium bovis BCG ATCC 35734; assay type: toxicity, cell-based; conditions: read-out: Selectivity Index
[17] = Selectivity index, ratio of GI50 for human A549 cells to MIC for active state Mycobacterium bovis BCG ATCC 35734; assay type: toxicity, cell-based; conditions: read-out: Selectivity Index

| SMILES | selectivity ratio [1] | selectivity ratio [2] | selectivity ratio [3] | IC50 [4] | MIC [4] | IC50 [5] | MIC [5] | IC50 [6] | MIC [6] | IC50 [7] | MIC [7] | IC50 [8] | MIC [8] | IC50 [9] | MIC [9] | GI50 at 72 h [10] | GI90 [11] | selectivity ratio [15] | selectivity ratio [16] | selectivity ratio [17] | other results |
| --- | --- | --- | --- | --- | --- | --- | --- | --- | --- | --- | --- | --- | --- | --- | --- | --- | --- | --- | --- | --- | --- |
| O=C(/C=C\c1ccc([N+](=O)[O-])cc1)N1N=C(c2ccncc2)OC1c1c[nH]c2ccccc12 (centres undefined) | > 12.7 | > 12 | > 12.7 | 9.46 µg/mL (≈ 21.5 µM) | 28.2 µg/mL (≈ 64.3 µM) | 11.9 µg/mL (≈ 27 µM) | 29.1 µg/mL (≈ 66.1 µM) | 12.7 µg/mL (≈ 28.8 µM) | 30.6 µg/mL (≈ 69.7 µM) | 13.5 µg/mL (≈ 30.6 µM) | 31.4 µg/mL (≈ 71.6 µM) | > 30 µg/mL | > 30 µg/mL | > 30 µg/mL | > 30 µg/mL | > 30 µg/mL | > 30 µg/mL | > 12 | > 12.7 | > 12 | GI50 at 48 h [12]: > 30 µg/mL; GI90 [13]: > 30 µg/mL; GI50 at 48 h [14]: > 30 µg/mL; GI90 [14]: > 30 µg/mL |
| O=C(/C=C\c1ccccc1O)N1N=C(c2ccncc2)OC1c1c[nH]c2ccccc12 (centres undefined) | > 25.2 | > 31.9 | > 25.2 | 21.7 µg/mL (≈ 52.9 µM) | > 256 µg/mL | 22.5 µg/mL (≈ 54.9 µM) | 192 µg/mL (≈ 469 µM) | 23.3 µg/mL (≈ 56.8 µM) | > 256 µg/mL | 22.1 µg/mL (≈ 53.9 µM) | > 256 µg/mL | > 30 µg/mL | > 30 µg/mL | > 30 µg/mL | > 30 µg/mL | 26.8 µg/mL (≈ 65.3 µM) | > 30 µg/mL | 28.5 | 22.5 | > 31.9 | GI50 at 48 h [12]: > 30 µg/mL; GI90 [13]: > 30 µg/mL; GI50 at 48 h [14]: > 30 µg/mL; GI90 [14]: > 30 µg/mL |
| O=C(/C=C\c1ccc(Br)cc1)N1N=C(c2ccncc2)OC1c1c[nH]c2ccccc12 (centres undefined) |  |  |  | 12.1 µg/mL (≈ 25.6 µM) | > 256 µg/mL | 10.4 µg/mL (≈ 22 µM) | > 256 µg/mL | 12.8 µg/mL (≈ 27 µM) | > 256 µg/mL | 15.2 µg/mL (≈ 32.1 µM) | > 256 µg/mL | > 30 µg/mL | > 30 µg/mL | > 30 µg/mL | > 30 µg/mL | > 30 µg/mL | > 30 µg/mL |  |  |  | GI50 at 48 h [12]: > 30 µg/mL; GI90 [13]: > 30 µg/mL; GI50 at 48 h [14]: > 30 µg/mL; GI90 [14]: > 30 µg/mL |
| O=C(/C=C\c1ccc(Cl)cc1Cl)N1N=C(c2ccncc2)OC1c1c[nH]c2ccccc12 (centres undefined) | > 6.03 | > 5.8 | > 6.03 | > 256 µg/mL | > 256 µg/mL | > 256 µg/mL | > 256 µg/mL | > 256 µg/mL | > 256 µg/mL | > 256 µg/mL | > 256 µg/mL | 29.3 µg/mL (≈ 63.3 µM) | > 30 µg/mL | 27.5 µg/mL (≈ 59.4 µM) | > 30 µg/mL | 29.3 µg/mL (≈ 63.3 µM) | > 30 µg/mL | 5.68 | 5.9 | > 5.8 | GI50 at 48 h [12]: > 30 µg/mL; GI90 [13]: > 30 µg/mL; GI50 at 48 h [14]: > 30 µg/mL; GI90 [14]: > 30 µg/mL |
| O=C(/C=C\c1ccccc1[N+](=O)[O-])N1N=C(c2ccncc2)OC1c1c[nH]c2ccccc12 (centres undefined) | > 35.3 | > 29.1 | > 35.3 | 18.4 µg/mL (≈ 41.8 µM) | > 256 µg/mL | 19.2 µg/mL (≈ 43.7 µM) | > 256 µg/mL | 21.1 µg/mL (≈ 47.9 µM) | > 256 µg/mL | 24.2 µg/mL (≈ 55.2 µM) | > 256 µg/mL | > 30 µg/mL | > 30 µg/mL | > 30 µg/mL | > 30 µg/mL | > 30 µg/mL | > 30 µg/mL | > 29.1 | > 35.3 | > 29.1 | GI50 at 48 h [12]: > 30 µg/mL; GI90 [13]: > 30 µg/mL; GI50 at 48 h [14]: > 30 µg/mL; GI90 [14]: > 30 µg/mL |
| NNC(=O)c1ccncc1 [ISONIAZID] | > 2560 | > 3030 | > 2560 |  |  |  |  |  |  |  |  | 0.0013 µg/mL (≈ 0.00948 µM) | 0.031 µg/mL (≈ 0.226 µM) | 0.0014 µg/mL (≈ 0.0102 µM) | 0.034 µg/mL (≈ 0.248 µM) |  |  | > 3030 | > 2560 | > 3030 |  |
| CO[C@H]1/C=C/O[C@@]2(C)Oc3c(C)c(O)c4c(O)c(c(/C=N/N5CCN(C)CC5)c(O)c4c3C2=O)NC(=O)/C(C)=C\C=C\[C@H](C)[C@H](O)[C@@H](C)[C@@H](O)[C@@H](C)[C@H](OC(C)=O)[C@@H]1C [RIFAMPIN] | > 2700 | > 2860 | > 2700 |  |  |  |  |  |  |  |  | 0.0016 µg/mL (≈ 0.00194 µM) | 0.041 µg/mL (≈ 0.0498 µM) | 0.0017 µg/mL (≈ 0.00207 µM) | 0.045 µg/mL (≈ 0.0547 µM) |  |  | > 2860 | > 2700 | > 2860 |  |
